Results reported in patent publication US20130052145A1, “ADHESIVE SLOW-RELEASE FORMULATIONS FOR THE LOCAL ADMINISTRATION OF CURCUMIN” (Orphanidis Pharma Research GmbH, priority 2010, published 2013).

How the values were obtained:
[1] = Solubility studies with curcumin in organic solvents and solvent + water mixtures; format: physicochemical
Description: For oral solutions, curcumin must be dissolved. The solvents listed in Table 1 have been tested for this purpose. The maximum concentration of curcumin that could be dissolved is listed for each solvent. If curcumin was soluble, water was added to the solvents and the solubility in this mixture was also determined: […]

[2] = Storage stability of liquid curcumin formulations under accelerated conditions (HPLC); format: physicochemical

COc1cc(/C=C/C(=O)CC(=O)/C=C/c2ccc(O)c(OC)c2)ccc1O [curcumin]
% Solubility (w/v) ([1]; Collidone 12 + water 4 + 6): 0 % (w/v)
% Solubility (w/v) ([1]; Collidone12 + water 5 + 5): 0 % (w/v)
% Solubility (w/v) ([1]; Collidone 17 + water 4 + 6): 0 % (w/v)
% Solubility (w/v) ([1]; Collidone 17 + water 5 + 5): 0 % (w/v)
% Solubility (w/v) ([1]; N-Ethyl-2-pyrrolidone + water 6 + 4): 4 % (w/v)
% Solubility (w/v) ([1]; N-Ethyl-2-pyrrolidone + water 7 + 3): 5 % (w/v)
% Solubility (w/v) ([1]; N-Methyl-2-pyrrolidone + water 6 + 4): 4 % (w/v)
% Solubility (w/v) ([1]; N-Methyl-2-pyrrolidone + water 7 + 3): 4 % (w/v)
% Solubility (w/v) ([1]; PEG 300 + water 8 + 2): 2.5 % (w/v)
% Solubility (w/v) ([1]; PEG 300 + water 9 + 1): 2.5 % (w/v)
% Solubility (w/v) ([1]; PVP + water 3 + 7): 0 % (w/v)
% Solubility (w/v) ([1]; Pluronic F-68 + water 3 + 7): 0 % (w/v)
% Solubility (w/v) ([1]; Pyrrolidone + water 1 + 9): 1 % (w/v)
% Solubility (w/v) ([1]; Pyrrolidone + water 5 + 5): 2.5 % (w/v)
% Solubility (w/v) ([1]; Pyrrolidone + water 6 + 4): 3 % (w/v)
% Solubility (w/v) ([1]; Pyrrolidone + water 7 + 3): 5 % (w/v)
% Solubility (w/v) ([1]; Pyrrolidone + water 9 + 1): 5 % (w/v)
% Solubility (w/v) ([1]; solvent Capmul): 0 % (w/v)
% Solubility (w/v) ([1]; solvent Cremophor): 0 % (w/v)
% Solubility (w/v) ([1]; solvent Dimethylacetamide): 4 % (w/v)
% Solubility (w/v) ([1]; solvent Glycerol): 0 % (w/v)
% Solubility (w/v) ([1]; solvent Hydrogenated peanut oil): 0 % (w/v)
% Solubility (w/v) ([1]; solvent Labrafil): 3 % (w/v)
% Solubility (w/v) ([1]; solvent Labrasol): 0 % (w/v)
% Solubility (w/v) ([1]; solvent N-Ethyl-2-pyrrolidone): 30 % (w/v)
% Solubility (w/v) ([1]; solvent N-Methyl-2-pyrrolidone): 30 % (w/v)
% Solubility (w/v) ([1]; solvent PEG 300): 2.5 % (w/v)
% Solubility (w/v) ([1]; solvent PVA): 0 % (w/v)
% Solubility (w/v) ([1]; solvent Pluronic L44): 3 % (w/v)
% Solubility (w/v) ([1]; solvent Propylene glycol): 0 % (w/v)
% Solubility (w/v) ([1]; solvent Pyrrolidone): 20 % (w/v)
% Solubility (w/v) ([1]; solvent Refined corn oil): 0 % (w/v)
Stability in storage of curcumin in PEG formulations [2]: comparatively high stability in storage
